The record followed here is patent publication US20150336889A1, “INDOLE DERIVATIVES, PHARMACEUTICAL COMPOSITIONS CONTAINING SUCH INDOLES AND THEIR USE AS DNA METHYLATION MODULATORS” (IKERCHEM, S.L., priority 2012, published 2015).

Molecules are shown by their SMILES.

The subject of one assay is NCI-H358. Kind of assay: Cancer cell growth inhibition, NCI-H358. Particulars: Homo sapiens; Lung, NCI-H358, cell viability, 72 h. Format: cell-based. Here is the method: (§1) Cell culture-based assays were used to evaluate the ability of compounds of the invention to inhibit cancer cell growth inhibition.
(§2) Cells were obtained from the American Type Culture Collection (ATCC) and European Collection of Cell Cultures (ECACC).
(§3) Cells were thawed in their appropriate media plus supplements (see table below). Cells were passaged at confluence by washing once in HBSS cation-free followed by a 3 minutes incubation with trypsin ([0.5 μg/ml]/EDTA [0.2 μg/ml]) (Gibco-BRL, 15400054) solution in HBSS at 37° C. (except non-adherent cell lines), and transferred to their appropriate media plus supplements. Prior to seeding at defined cell concentration, cells were recovered in medium, centrifuged and taken up in medium, and counted.
(§4) Cells were plated at 3000/5000/10000 cells/well in 100 μl media in tissue culture 96 well plates (Cultek). After 24 h, media was supplemented by 100 μl/well of diluted IPDNs at 100 μM.
(§5) The Hexosaminidase assay was used for the adherent cell lines, whereas the AlamarBlue® assay was used for the non-adherent cell lines.
(§6) Dose-response curves were generated by serial dilutions (1:1) of the compounds. […] Reagent blanks, containing media plus colorimetric reagent without cells were run on each plate. Blank values were subtracted from test values and were routinely 5-10% of uninhibited control values. Plates were incubated 72 h, and living cell number was determined by AlamarBlue® and Hexosaminidase test. The advantages of using those assays are that both can be done in the same microwell plate. AlamarBlue® assay: plates were incubated 72 h and living cell number was determined by AlamarBlue (Biosource DAL1100). After 4 h incubation at 37° C., relative fluorescent intensity, which correlates with the number of living cells, was read in a Cytofluor plate reader (Millipore) at 535/590 nm (Excitation/emission). The hexosaminidase activity was measured according to the following protocol: the media was removed and cells were washed once with PBS.
(§7) Data analysis was done by calculating the percentage of cell viability normalized in front of negative control values, which were considered as a 100%. The curve was adjusted using a sigmoidal dose-response (variable slope) equation and EC50 values were obtained from the equation
(§8) where, X is the logarithm of concentration. Y is the response. Bottom is the Y value at the bottom plateau Top is the Y value at the top plateau LogEC50 is the X value when the response is halfway between Bottom and Top. With different kinds of variables, this variable is sometimes called ED50 (effective dose, 50%), or IC50 (inhibitory concentration, 50%, used when the curve goes downhill).

The next assay concerns the target T1, Human DNMT1 (Homo sapiens, UniProt P26358).
T1 construct: a-a 2-1632, with N-terminal GST tag; GST (N)
Description: DNMT1 enzymatic activity inhibition, radioisotope-based 3H-SAM filter binding assay. In kind it is biochemical. Particulars: 1 μM SAM, 25 nM DNMT1, 0.005 mg/ml Poly(dI-dC), 30° C. 1 hour, 10-dose.

In the next assay the test system is A-549. Description: Cancer cell growth inhibition, A-549. In kind it is cell-based. Particulars: Homo sapiens, A549; Lung, A-549, cell viability, 72 h. Here is the method:
as §1, §2, §3, §4, §5, §6, §7, §8

Another assay relates to RWPI. Description: Cancer cell growth inhibition, RWPI. In kind it is cell-based. Particulars: Pancreatic, cell viability, 72 h. Here is the method:
as §1, §2
(§9) Cells were thawed in their appropriate media plus supplements (see table below). Cells were passaged at confluence by washing once in HBSS cation-free followed by a 3 minutes incubation with trypsin ([0.5 μg/ml]/EDTA [0.2 μg/ml]) (Gibco-BRL, 15400054) solution in HBSS at 37° C. (except non-adherent cell lines), and transferred to their appropriate media plus supplements. Prior to seeding at defined cell concentration, cells were recovered in medium, centrifuged and taken up in medium, and counted. […]
(§10) Dose-response curves were generated by serial dilutions (1:1) of the compounds. […] Plates were incubated 72 h, and living cell number was determined by AlamarBlue® and Hexosaminidase test. […] AlamarBlue® assay: plates were incubated 72 h and living cell number was determined by AlamarBlue (Biosource DAL1100). After 4 h incubation at 37° C., relative fluorescent intensity, which correlates with the number of living cells, was read in a Cytofluor plate reader (Millipore) at 535/590 nm (Excitation/emission). The hexosaminidase activity was measured according to the following protocol: the media was removed and cells were washed once with PBS. […]

The subject of a further assay is SK-MEL-28. Description: Cancer cell growth inhibition, SK-MEL-28. Format: cell-based. The settings on record: Homo sapiens; Melanoma, SK-MEL-28, cell viability, 72 h. Here is the method:
as §1, §2, §3, §4, §5
as §6, with “PBS. […]” for “PBS.”

A further assay has as its system LS174T. Description: Cancer cell growth inhibition, LS174T. In kind it is cell-based. Particulars: Homo sapiens, Colorectal, cell viability, 72 h. Here is the method: as §1, §2, §9, §10
In the next assay the test system is BxPC3. Description: Cancer cell growth inhibition, BxPC3. The settings on record: Homo sapiens, BXPC-3; Pancreatic, BxPC3, cell viability, 72 h. Format: cell-based. Here is the method: as §1, §2, §3, §4, §5
as §6, with “PBS. […]” for “PBS.”

The next assay concerns MiaPaCa-2. Description: Cancer cell growth inhibition, MiaPaCa-2. Format: cell-based. The settings on record: Homo sapiens, MIA PaCa-2; Pancreatic, MiaPaCa-2, cell viability, 72 h. Here is the method:
as §1, §2, §3, §4, §5, §6, §7, §8

The test system of another assay is MDA-MB-468. Kind of assay: Cancer cell growth inhibition, MDA-MB-468. Format: cell-based. Particulars: Homo sapiens; Breast, MDA-MB-468, cell viability, 72 h. As for the experimental part:
as §1, §2, §3, §4, §5
as §6, with “PBS. […]” for “PBS.”

The next assay concerns K562. Description: Cancer cell growth inhibition, K562. In kind it is cell-based. Particulars: Homo sapiens; Hematologic, K562, cell viability, 72 h. As for the experimental part:
as §1, §2, §3, §4, §5
as §6, with “PBS. […]” for “PBS.”

In a further assay the test system is OVCAR-3. Kind of assay: Cancer cell growth inhibition, OVCAR-3. In kind it is cell-based. Particulars: Homo sapiens; Ovarian, OVCAR-3, cell viability, 72 h. As for the experimental part: as §1, §2, §9, §10
Another assay has as its system PC3. Kind of assay: Cancer cell growth inhibition, PC3. The settings on record: Homo sapiens, PC-3; Prostate, PC3, cell viability, 72 h. In kind it is cell-based. As for the experimental part:
as §1, §2, §3, §4, §5, §6, §7, §8

A further assay concerns BT474. Kind of assay: Cancer cell growth inhibition, BT474. Format: cell-based. The settings on record: Homo sapiens, BT-474; Breast, BT474, cell viability, 72 h. As for the experimental part:
as §1, §2, §9, §10

For another assay, the system named is MDA-MB-231. Kind of assay: Cancer cell growth inhibition, MDA-MB-231. In kind it is cell-based. Particulars: Homo sapiens; Breast, MDA-MB-231, cell viability, 72 h. Here is the method:
as §1, §2, §9, §10

The next assay relates to U-373MG. Description: Cancer cell growth inhibition, U-373MG. In kind it is cell-based. The settings on record: Homo sapiens, U373 MG, Brain, cell viability, 72 h. Here is the method: as §1, §2, §3, §4, §5
as §6, with “PBS. […]” for “PBS.”

A further assay has as its system NCI-H1975. Kind of assay: Cancer cell growth inhibition, NCI-H1975. In kind it is cell-based. The settings on record: Homo sapiens; Lung, NCI-H1975, cell viability, 72 h. As for the experimental part: as §1, §2, §3, §4, §5, §6, §7, §8
Another assay relates to Panc-1. Description: Cancer cell growth inhibition, Panc-1. In kind it is cell-based. Particulars: Homo sapiens; Pancreatic, Panc-1, cell viability, 72 h. Here is the method: as §1, §2, §3, §4, §5, §6, §7, §8
A further assay concerns SW-480. Description: Cancer cell growth inhibition, SW-480. In kind it is cell-based. Particulars: Homo sapiens, SW480; Colorectal, SW-480, cell viability, 72 h. Here is the method:
as §1, §2, §9, §10

In another assay the test system is RCC-7860. Description: Cancer cell growth inhibition, RCC-7860. Format: cell-based. The settings on record: Renal, RCC-7860, cell viability, 72 h. As for the experimental part:
as §1, §2, §9, §10

T1 sequence (P26358 2-1632 isoform P26358-2): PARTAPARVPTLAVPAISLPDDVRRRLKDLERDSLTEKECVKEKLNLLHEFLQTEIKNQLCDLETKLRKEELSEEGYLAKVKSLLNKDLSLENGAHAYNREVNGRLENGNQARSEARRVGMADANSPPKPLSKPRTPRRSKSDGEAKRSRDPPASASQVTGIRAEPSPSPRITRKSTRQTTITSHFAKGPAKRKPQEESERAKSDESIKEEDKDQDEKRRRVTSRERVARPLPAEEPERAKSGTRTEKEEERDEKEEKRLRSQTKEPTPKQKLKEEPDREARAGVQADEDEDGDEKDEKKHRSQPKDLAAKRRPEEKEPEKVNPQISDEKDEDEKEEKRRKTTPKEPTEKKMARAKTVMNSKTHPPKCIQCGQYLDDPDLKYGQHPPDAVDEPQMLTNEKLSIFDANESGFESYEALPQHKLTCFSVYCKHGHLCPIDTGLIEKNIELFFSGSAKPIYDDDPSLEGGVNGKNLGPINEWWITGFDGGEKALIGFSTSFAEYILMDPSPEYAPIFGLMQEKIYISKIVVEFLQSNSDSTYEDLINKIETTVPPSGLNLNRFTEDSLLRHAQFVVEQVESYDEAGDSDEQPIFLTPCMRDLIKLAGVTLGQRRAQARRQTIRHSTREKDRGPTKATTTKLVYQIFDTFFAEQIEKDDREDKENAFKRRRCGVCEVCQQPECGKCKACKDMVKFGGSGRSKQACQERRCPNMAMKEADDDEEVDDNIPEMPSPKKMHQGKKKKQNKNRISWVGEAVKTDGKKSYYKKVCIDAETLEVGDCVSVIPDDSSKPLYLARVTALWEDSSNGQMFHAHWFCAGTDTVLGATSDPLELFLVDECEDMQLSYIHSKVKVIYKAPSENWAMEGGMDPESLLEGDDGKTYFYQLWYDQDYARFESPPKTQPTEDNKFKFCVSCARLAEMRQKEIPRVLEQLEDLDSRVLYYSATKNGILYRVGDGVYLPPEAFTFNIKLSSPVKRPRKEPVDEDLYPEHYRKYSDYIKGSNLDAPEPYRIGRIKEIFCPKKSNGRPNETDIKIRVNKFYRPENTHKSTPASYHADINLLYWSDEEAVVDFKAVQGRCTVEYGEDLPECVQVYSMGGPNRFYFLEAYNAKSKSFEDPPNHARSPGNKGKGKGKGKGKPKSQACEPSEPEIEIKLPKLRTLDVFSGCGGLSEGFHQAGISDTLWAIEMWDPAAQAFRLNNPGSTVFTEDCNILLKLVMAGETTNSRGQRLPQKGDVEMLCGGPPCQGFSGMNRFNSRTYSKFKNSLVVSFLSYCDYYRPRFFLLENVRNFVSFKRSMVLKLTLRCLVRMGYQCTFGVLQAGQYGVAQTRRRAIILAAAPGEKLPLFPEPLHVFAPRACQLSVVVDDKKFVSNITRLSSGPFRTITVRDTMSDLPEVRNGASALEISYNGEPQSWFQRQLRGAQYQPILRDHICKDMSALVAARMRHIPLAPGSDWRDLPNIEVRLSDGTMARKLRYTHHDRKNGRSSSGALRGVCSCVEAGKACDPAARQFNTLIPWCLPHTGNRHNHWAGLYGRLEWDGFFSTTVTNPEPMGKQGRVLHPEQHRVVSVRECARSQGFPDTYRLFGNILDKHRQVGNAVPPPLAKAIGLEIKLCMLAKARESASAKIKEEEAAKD

Regarding `O=C(Cn1cc(-c2ccc(O)cc2)c2c(F)cc(F)cc21)c1ccc(O)cc1` [Example 16, 2-[4,6-difluoro-3-(4-hydroxyphenyl)-1H-indol-1-yl]-1-(4-hydroxyphenyl) ethanone], the EC50 came out at 23 µM in the assay on NCI-H358; 39 µM with A-549; 46 µM in the assay with RWPI; 59 µM in the assay on SK-MEL-28; 88 µM in the assay with LS174T; 34 µM in the assay with BxPC3. For the same compound, the EC50 in the assay on MiaPaCa-2 stood at 61 µM; in the assay on MDA-MB-468, 74 µM; in the assay with K562, 51 µM; in the assay with OVCAR-3, 47 µM; in the assay on PC3 it was 83 µM. At Human DNMT1, this compound yielded an IC50 of 22.5 µM.
In the case of `COc1cc(OC)c2c(-c3ccc(O)cc3)cn(CC(=O)c3ccc(O)cc3)c2c1` [Example 6, 1-(4-hydroxyphenyl)-2-[3-(4-hydroxyphenyl)-4,6-dimethoxy-1H-indol-1-yl]ethanone], the EC50 is 7.3 µM in the assay with NCI-H358; 50 µM with BT474; 11 µM in the assay on A-549; 25 µM in the assay on RWPI; 4.8 µM with SK-MEL-28; 13 µM in the assay with MDA-MB-231. Moreover, the EC50 in the assay with BxPC3 was determined as 15 µM; with U-373MG it was 8.1 µM; with MiaPaCa-2, 5.5 µM; in the assay on MDA-MB-468 it was 6.1 µM; in the assay on NCI-H1975, 9.2 µM; in the assay on Panc-1 it was 15 µM. Further, the EC50 in the assay on SW-480 was 94 µM; with K562, 13 µM; in the assay with RCC-7860, 12 µM; in the assay with OVCAR-3 it was 7.2 µM; with PC3, 51 µM. In addition, the IC50 on Human DNMT1 is 27.9 µM.

A word on the EC50: it is the concentration at which the effect is half-maximal. By IC50 is commonly meant the concentration that gives 50% inhibition. Read a high IC50 as lower potency.
